Tests used:
CCK-A receptors = target: T1, CCK-A receptors (Rattus norvegicus, UniProt P30551); experiment: Measurement of binding affinity for CCK-A receptors ([3H]L-364,718, rat pancreas membranes); parameters: species or system SD rat; settings: [3H]L-364,718, 37° C., 30 minutes, read-out: Receptor binding affinity IC50, CCK-A
T1 construct: The pancreas of an SD rat was homogenized; from tissue; host or cells: SD rat pancreas membranes
T1 sequence (P30551 1-444): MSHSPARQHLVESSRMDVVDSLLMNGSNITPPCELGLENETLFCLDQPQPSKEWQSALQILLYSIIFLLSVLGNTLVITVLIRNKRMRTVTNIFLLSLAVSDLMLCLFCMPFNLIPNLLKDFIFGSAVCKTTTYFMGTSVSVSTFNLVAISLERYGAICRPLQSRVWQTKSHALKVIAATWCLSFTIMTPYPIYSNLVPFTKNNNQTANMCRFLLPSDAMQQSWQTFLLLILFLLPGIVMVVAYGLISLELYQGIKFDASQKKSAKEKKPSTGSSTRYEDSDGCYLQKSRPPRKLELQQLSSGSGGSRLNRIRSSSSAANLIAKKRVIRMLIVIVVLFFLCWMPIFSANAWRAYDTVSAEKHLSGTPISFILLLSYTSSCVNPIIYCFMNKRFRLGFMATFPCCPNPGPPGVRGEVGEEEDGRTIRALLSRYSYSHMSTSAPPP
Procedure: Measurement of binding affinity for CCK-A receptors
The pancreas of an SD rat was homogenized in a 20-fold volume of 50 mM Tris-HCl buffer (pH 7.7) by the use of a Polytrone-type homogenizer, the homogenate was twice centrifuged for 10 minutes at 50000 g by the use of an ultra-centrifuge, the precipitate thus obtained was suspended in a 40-fold volume of 50 mM Tris-HCl buffer (containing 0.2% BSA, 5 mM MgCl2, 0.1 mg/ml bacitracin and 5 mM DTT; pH 7.7), and the suspension was stored at -80° C. until the membrane preparations were required.
The membrane preparations were then warmed to room temperature, diluted 1:10 with the buffer and incubated at 37° C. for 30 minutes in the presence of [^3 H]L-364,718 and the test compound then separated by suction filtration. Non-specific binding was determined in the presence of 1 μM L-364,718. The amount of labelled ligand bound to the receptor was measured by the use of a liquid scintillation counter; IC50 values were determined, being that concentration of test compound required to inhibit specific binding by 50%
(§1) A high affinity for the CCK-A receptor in a gastrin/CCK-B antagonist is thought to be undesirable as it may lead to side-effects such as cholestasis and gall stone formation during therapy. Therefore it is preferable for the therapeutic agent to be selective for the CCK-B receptor. This selectivity is expressed by the ratio IC50 (CCK-A)/IC50 (CCK-B); the higher the value of this ratio the better is the selectivity.

CCK-B receptors = target: T2, CCK-B receptors (Rattus norvegicus, UniProt P30553); experiment: Measurement of binding affinity for CCK-B receptors ([125I]BH-CCK-8, rat brain membranes); parameters: species or system SD rats; settings: for IC50: rat brain membranes, [125I]BH-CCK-8, 25° C., 120 minutes, pH 6.5, read-out: Receptor binding affinity IC50, CCK-B; for A/B Ratio: ratio IC50 (CCK-A)/IC50 (CCK-B)
T2 construct: the whole brain was immediately excised from each of the rats and homogenized; from tissue; host or cells: SD rat whole brain membranes
T2 sequence (P30553 whole entry): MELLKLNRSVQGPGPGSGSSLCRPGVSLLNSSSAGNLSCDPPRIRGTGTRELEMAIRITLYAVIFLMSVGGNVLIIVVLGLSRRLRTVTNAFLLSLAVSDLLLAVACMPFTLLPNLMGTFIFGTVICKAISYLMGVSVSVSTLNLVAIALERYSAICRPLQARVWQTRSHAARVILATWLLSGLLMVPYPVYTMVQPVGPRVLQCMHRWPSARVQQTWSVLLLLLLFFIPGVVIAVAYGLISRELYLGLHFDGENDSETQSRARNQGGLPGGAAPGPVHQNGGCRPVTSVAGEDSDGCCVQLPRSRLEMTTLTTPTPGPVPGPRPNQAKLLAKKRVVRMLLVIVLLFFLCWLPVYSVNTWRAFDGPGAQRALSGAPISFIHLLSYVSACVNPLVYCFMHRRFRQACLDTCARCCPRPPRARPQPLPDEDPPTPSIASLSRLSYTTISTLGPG
Procedure: Measurement of binding affinity for CCK-B receptors
About 100 SD rats were decapitated without anaesthesia, the whole brain was immediately excised from each of the rats and homogenized in 10-fold volume of 0.32M aqueous solution of sucrose by the use of a Teflon-coated homogenizer, the homogenate thus obtained was centrifuged for ten minutes at 900 g by the use of a cooled centrifuge, and the supernatant was further centrifuged for 15 minutes at 11500 g. The precipitate thus obtained was dispersed in 50 mM Tris-HCl buffer (pH 7.4) containing 0.08% Triton X-100, this suspension was allowed to stand for 30 minutes and again centrifuged for 15 minutes at 11500 g, the precipitate thus obtained was washed twice with 5 mM Tris-HCl buffer and twice with 50 mM Tris-HCl buffer in that order with centrifugal separation, the washed precipitate was suspended in 50 mM Tris-HCl buffer, and the suspension thus obtained was stored at -80° C. until the membrane preparation was required.
The membrane preparations were warmed to room temperature, diluted with 10 mM HEPES buffer (containing 130 mM NaCl, 5 mM MgCl2, 1 mM EGTA and 0.25 mg/ml bacitracin; pH 6.5) and incubated at 25° C. for 120 minutes in the presence of [^125 I]BH-CCK-8 and the test compound, then separated by suction filtration. Non-specific binding was determined in the presence of 1 μM CCK-8. The amount of labelled ligand bound to the receptor was measured by the use of a γ-counter; IC50 values were determined, being that concentration of test compound required to inhibit specific binding by 50%.
as §1

`CC(=O)N1CCC[C@H]1C(=O)CN1C(=O)C(NC(=O)Nc2cccc(C)c2)N=C(c2ccccc2)c2ccccc21` (mixture of isomers) [Example 9, N-((3RS)-1-((2S)-1-Acetyl-2-pyrrolidylcarbonylmethyl)-2,3-dihydro-2-oxo-5-phenyl-1H-1,4-benzodiazepin-3-yl)-N'-(3-methylphenyl)urea] was tested, and the IC50 (CCK-A receptors) was greater than 10000 nM, the IC50 (CCK-B receptors) was 7.3 nM and the “A/B Ratio” value (CCK-B receptors) was > 1,400.
With `O=C(Nc1cccc(C(=O)O)c1)N[C@@H]1N=C(c2ccccc2)c2ccccc2N(CC(O)C2CCCC2)C1=O` (mixture of isomers) [Example 24, N-((3R)-1-((2RS)-2-Cyclopentyl-2-hydroxyethyl)-2,3-dihydro-2-oxo-5-phenyl-1H-1,4-benzodiazepin-3-yl)-N'-(3-carboxyphenyl)urea] the IC50 (CCK-A receptors) was greater than 10000 nM, the IC50 (CCK-B receptors) was 0.97 nM and the “A/B Ratio” value (CCK-B receptors) was > 10,000.
With `Cc1cccc(NC(=O)N[C@@H]2N=C(c3ccccc3)c3ccccc3N(C[C@H](O)C3CCCC3)C2=O)c1` (racemic) [Example 12, N-((3RS)-1-((2RS)-2-Cyclopentyl-2-hydroxyethyl)-2,3-dihydro-2-oxo-5-phenyl-1H-1,4-benzodiazepin-3-yl)-N'-(3-methylphenyl)urea] the IC50 (CCK-A receptors) was greater than 10000 nM, the IC50 (CCK-B receptors) was 1.4 nM and the “A/B Ratio” value (CCK-B receptors) was > 7,100.
For `Cc1cccc(NC(=O)N[C@@H]2N=C(c3ccccc3)c3ccccc3N(C[C@@H](O)C3CCCC3)C2=O)c1` (racemic) [Example 13, N-((3RS)-1-((2SR)-2-Cyclopentyl-2-hydroxyethyl)-2,3-dihydro-2-oxo-5-phenyl-1H-1,4-benzodiazepin-3-yl)-N'-(3-methylphenyl)urea], the IC50 (CCK-A receptors) was greater than 10000 nM, the IC50 (CCK-B receptors) was 0.11 nM and the “A/B Ratio” value (CCK-B receptors) was > 91,000.
For `Cc1cccc(NC(=O)NC2N=C(c3ccccn3)c3ccccc3N(CC(=O)C3CCCC3)C2=O)c1` (racemic) [Example 14, N-((3RS)-1-Cyclopentylcarbonylmethyl-2,3-dihydro-2-oxo-5-(2-pyridyl)-1H-1,4-benzodiazepin-3-yl)-N'-(3-methylphenyl)urea], the “A/B Ratio” value (CCK-B receptors) was 22,000.
`O=C(Nc1cccc(C(=O)O)c1)NC1N=C(c2ccccn2)c2ccccc2N(CC(=O)C2CCCC2)C1=O` (racemic) [Example 22, N-((3RS)-1-Cyclopentylcarbonylmethyl-2,3-dihydro-2-oxo-5-(2-pyridyl)-1H-1,4-benzodiazepin-3-yl)-N'-(3-carboxyphenyl)urea] was tested, and the IC50 (CCK-A receptors) was greater than 10000 nM, the IC50 (CCK-B receptors) was 3.5 nM and the “A/B Ratio” value (CCK-B receptors) was > 2,900.
`O=C(O)Cc1cccc(NC(=O)NC2N=C(c3ccccc3)c3ccccc3N(CC(=O)C3CCCC3)C2=O)c1` (racemic) [Example 31, N-((3RS)-1-Cyclopentylcarbonylmethyl-2,3-dihydro-2-oxo-5-phenyl-1H-1,4-benzodiazepin-3-yl)-N'-(3-carboxymethylphenyl)urea] was tested, and the IC50 (CCK-A receptors) was 3400 nM, the IC50 (CCK-B receptors) was 0.53 nM and the “A/B Ratio” value (CCK-B receptors) was 6,400.
For `Cc1cccc(NC(=O)NC2N=C(c3ccccc3)c3ccccc3N(CC(=O)CC3CCCCC3)C2=O)c1` (racemic) [Example 32, N-((3RS)-1-Cyclohexylmethylcarbonylmethyl-2,3-dihydro-2-oxo-5-phenyl-1H-1,4-benzodiazepin-3-yl)-N'-(3-methylphenyl)urea], the IC50 (CCK-A receptors) was 480 nM and the “A/B Ratio” value (CCK-B receptors) was 1,700.
In the case of `Cc1cccc(NC(=O)NC2N=C(c3ccccc3)c3ccccc3N(CC(=O)C3(C)CCCCC3)C2=O)c1` (racemic) [Example 34, N-((3RS)-1-((1-Methylcyclohexyl)carbonylmethyl)-2,3-dihydro-2-oxo-5-phenyl-1H-1,4-benzodiazepin-3-yl)-N'-(3-methylphenyl)urea], the IC50 (CCK-A receptors) is reported as greater than 10000 nM and the “A/B Ratio” value (CCK-B receptors) is reported as > 26,000.
In the case of `NC(=O)c1cccc(NC(=O)NC2N=C(c3ccccc3)c3ccccc3N(CC(=O)C3CCCC3)C2=O)c1` (racemic) [Example 35, N-((3RS)-1-Cyclopentylcarbonylmethyl-2,3-dihydro-2-oxo-5-phenyl-1H-1,4-benzodiazepin-3-yl)-N'-(3-carboxamidophenyl)urea], the IC50 (CCK-A receptors) is reported as 1900 nM, the IC50 (CCK-B receptors) is reported as 1.1 nM and the “A/B Ratio” value (CCK-B receptors) is reported as 1,700.
In the case of `COc1cccc(NC(=O)NC2N=C(c3ccccc3)c3ccccc3N(CC(=O)C3CCCC3)C2=O)c1` (racemic) [Example 42, N-((3RS)-1-Cyclopentylcarbonylmethyl-2,3-dihydro-2-oxo-5-phenyl-1H-1,4-benzodiazepin-3-yl)-N'-(3-methoxyphenyl)urea], the IC50 (CCK-A receptors) is reported as 360 nM, the IC50 (CCK-B receptors) is reported as 0.07 nM and the “A/B Ratio” value (CCK-B receptors) is reported as 5,100.
In the case of `O=C(Nc1cccc([N+](=O)[O-])c1)NC1N=C(c2ccccc2)c2ccccc2N(CC(=O)C2CCCC2)C1=O` (racemic) [Example 44, N-((3RS)-1-Cyclopentylcarbonylmethyl-2,3-dihydro-2-oxo-5-phenyl-1H-1,4-benzodiazepin-3-yl)-N'-(3-nitrophenyl)urea], the IC50 (CCK-A receptors) is reported as 1600 nM, the IC50 (CCK-B receptors) is reported as 0.17 nM and the “A/B Ratio” value (CCK-B receptors) is reported as 9,400.
In the case of `CC(C)(C)C(=O)CN1C(=O)C(NC(=O)Nc2cccc([N+](=O)[O-])c2)N=C(c2ccccc2)c2ccccc21` (racemic) [Example 45, N-((3RS)-1-tert-Butylcarbonylmethyl-2,3-dihydro-2-oxo-5-phenyl-1H-1,4-benzodiazepin-3-yl)-N'-(3-nitrophenyl)urea], the IC50 (CCK-B receptors) is reported as 0.16 nM.
In the case of `Cc1cccc(NC(=O)N[C@@H]2N=C(c3ccccc3)c3ccccc3N(CC(=O)C3CCCC3)C2=O)c1` [Example 17, N-((3R)-1-Cyclopentylcarbonylmethyl-2,3-dihydro-2-oxo-5-phenyl-1H-1,4-benzodiazepin-3-yl)-N'-(3-methylphenyl)urea], the IC50 (CCK-A receptors) is reported as 2500 nM, the IC50 (CCK-B receptors) is reported as 0.07 nM and the “A/B Ratio” value (CCK-B receptors) is reported as 36,000.
With `Cc1cccc(NC(=O)N[C@@H]2N=C(c3ccccc3)c3ccccc3N(C[C@H](O)C3CCCC3)C2=O)c1` [Example 19, N-((3R)-1-((2R)-2-Cyclopentyl-2-hydroxyethyl)-2,3-dihydro-2-oxo-5-phenyl-1H-1,4-benzodiazepin-3-yl)-N'-(3-methylphenyl)urea] the IC50 (CCK-A receptors) was 1 nM, the IC50 (CCK-B receptors) was 0.92 nM and the “A/B Ratio” value (CCK-B receptors) was 1,200.
In the case of `O=C(Nc1cccc(C(=O)O)c1)N[C@@H]1N=C(c2ccccc2)c2ccccc2N(CC(=O)C2CCCC2)C1=O` [Example 23, N-((3R)-1-Cyclopentylcarbonylmethyl-2,3-dihydro-2-oxo-5-phenyl-1H-1,4-benzodiazepin-3-yl)-N'-(3-carboxyphenyl)urea], the IC50 (CCK-A receptors) is reported as 870 nM, the IC50 (CCK-B receptors) is reported as 0.08 nM and the “A/B Ratio” value (CCK-B receptors) is reported as 11,000.
For `O=C(Nc1cccc(C(=O)O)c1)N[C@@H]1N=C(c2ccccc2)c2ccccc2N(C[C@H](O)C2CCCC2)C1=O` [Example 25, N-((3R)-1-((2R)-2-Cyclopentyl-2-hydroxyethyl)-2,3-dihydro-2-oxo-5-phenyl-1H-1,4-benzodiazepin-3-yl)-N'-(3-carboxyphenyl)urea], the IC50 (CCK-A receptors) was greater than 10000 nM, the IC50 (CCK-B receptors) was 0.65 nM and the “A/B Ratio” value (CCK-B receptors) was > 15,000.
